One assay deals with Aspergillus sp. The experiment in a line: Plate medium assay, industrial material deteriorating microorganism, Aspergillus (Experimental Example 5). The format is cell-based. The conditions noted are these: treatment at 50 mg/l, PDA plate medium, read-out: growth inhibition grade. As to the method:
(§1) In this Experimental Example, the fungicidal effects of the inventive compounds on various phytopathogenic fungi for plants and hazardous microorganism for industrial materials were examined by the methods described below. Each inventive compound was dissolved in 2 ml of dimethyl sulfoxide. 0.6 ml of this solution was added to 60 nil of a PDA medium (potato dextrose agar medium) at about 60 degrees C., which was mixed thoroughly in a 100-ml conical flask, and poured into a dish, where it was solidified, thereby obtaining a plate medium containing the inventive compound at 50 mg/L and 5 mg/L. On the other hand, a subject microorganism previously cultured on a plate medium was cut out using a cork borer whose diameter was 4 mm, and inoculated to the test compound-containing plate medium described above. […] The growth degree of the microorganism on the test compound-containing plate medium thus observed was compared with the growth degree of the microorganism in the untreated group, and % mycelial growth inhibition was calculated by the following equation. R=100(dc-dt)/dc wherein R=% mycelial extension inhibition, dc=flora diameter in untreated plate, dt=flora diameter in treated plate. The results obtained as described above were evaluated as one of the 5 grades according to the following criteria.

The test system of the next assay is Mucor sp. Put plainly: Plate medium assay, industrial material deteriorating microorganism, Mucor (Experimental Example 5). The assay is classed as cell-based. Conditions: treatment at 50 mg/l, PDA plate medium, read-out: growth inhibition grade. As to the method: as §1
A further assay concerns Coriolus versicolor. Put plainly: Plate medium assay, wood denaturing microorganism Kawaratake (Experimental Example 5). The format is cell-based. Conditions: Trametes versicolor; treatment at 50 mg/l, PDA plate medium; read-out: growth inhibition grade. The protocol: as §1
The next assay concerns Botrytis cinerea. The experiment in a line: Efficacy test against cucumber gray mold (Experimental Example 1). The assay is classed as in vivo. Conditions: 96 h, four days after inoculation, read-out: Protective value; for pest or weed control at 100 µg/mL: 100 mg/L sprayed at 1,000 L/ha. As to the method: Onto a cucumber (variety:SHARP1) plant in its cotyledon phase grown using a square plastic pot (6 cm×6 cm), a wettable formulation such as Formulation Example 1 which was diluted and suspended in water at a certain concentrations (100 mg/L and 50 mg/L) was sprayed at a rate of 1,000 L/ha. The sprayed leaves were air-dried, and loaded with a paper disc (8 mm in diameter) soaked in a spore suspension of Botrytis cinerea, and kept at 20 degrees C. and a high humidity. Four days after inoculation, the cucumber gray mold lesion degree was investigated, and the protective value was calculated by the following equation. Protective value (%)=(1−mean lesion degree in sprayed plot/mean lesion degree in unsprayed plot)×100

In a further assay the test system is Curvularia sp. Put plainly: Plate medium assay, industrial material deteriorating microorganism, Curvularia (Experimental Example 5). The format is cell-based. Conditions: treatment at 50 mg/l, PDA plate medium, read-out: growth inhibition grade. The protocol: as §1
The next assay relates to Tyromyces palustris. Put plainly: Plate medium assay, wood denaturing microorganism Oouzuratake (Experimental Example 5). The assay is classed as cell-based. The conditions noted are these: treatment at 50 mg/l, PDA plate medium; read-out: growth inhibition grade. As to the method: as §1
In a further assay the test system is Penicillium sp. The experiment in a line: Plate medium assay, industrial material deteriorating microorganism, Penicillium (Experimental Example 5). The format is cell-based. The conditions noted are these: treatment at 50 mg/l, PDA plate medium, read-out: growth inhibition grade. As to the method: as §1
The subject of the next assay is Septoria tritici. The experiment in a line: Microplate test of biocidal effect on wheat Septoria blotch (Experimental Example 4). The assay is classed as cell-based. Conditions: Zymoseptoria tritici, 240 h; % mycelium growth inhibition, absorbance 550 nm, 20 degrees C. for about 10 days; read-out: activity level (EC80). The protocol: A spore suspension of wheat Septoria blotch (Septoria tritici) (spore concentration: 1×10^6 cells/ml) was prepared, and subjected to 100-fold dilution with a PD medium. A flat 96-well microplate was provided and 1 microliter of the test compound solution formed by dissolution in dimethyl sulfoxide (DMSO) at a concentration 100 times the test concentration was dispensed to the microplate, and then 100 microliter of the medium containing the spore was added and stirred thoroughly. […] R=100×(dc−dt)/dc: R: % mycelium growth inhibition dc: Absorbance of non-treatment zone dt: Absorbance of treatment zone

A further assay relates to Aureobasidium sp. Put plainly: Plate medium assay, industrial material deteriorating microorganism, Aureobasidium (Experimental Example 5). Conditions: treatment at 50 mg/l, PDA plate medium, read-out: growth inhibition grade. The format is cell-based. As to the method:
as §1

For another assay, the system named is Fusarium graminearum. The experiment in a line: whole plant or invertebrate. The format is in vivo. Conditions: in Triticum aestivum, 168 h, read-out: Protective value.
The next assay relates to Trichoderma sp. Put plainly: Plate medium assay, industrial material deteriorating microorganism, Trichoderma (Experimental Example 5). The format is cell-based. Conditions: treatment at 50 mg/l, PDA plate medium, read-out: growth inhibition grade. As to the method: as §1
In a further assay the test system is Cladosporium sp. The experiment in a line: Plate medium assay, industrial material deteriorating microorganism, Cladosporium (Experimental Example 5). The format is cell-based. The conditions noted are these: treatment at 50 mg/l, PDA plate medium, read-out: growth inhibition grade. As to the method:
as §1

Usually inhibition stands for the change of the read-out against control, counted positive when it falls. Broadly, the EC80 is the concentration needed for an effect of 80%.

With `CC(Cl)=C[C@@]1(C)CC[C@@H](Cc2ccc(Cl)cc2)[C@]1(O)Cn1cncn1` (racemic) [Compound I-15, (1RS,2RS,5SR)-5-(4-chlorobenzyl)-2-(2-chloropropenyl)-2-methyl-1-(1H-1,2,4-triazol-1-ylmethyl)cyclopentanol], the inhibition at 50 µg/mL in the assay on Aspergillus sp., in the assay with Mucor sp., in the assay on Coriolus versicolor, in the assay with Curvularia sp., in the assay with Tyromyces palustris and with Penicillium sp. was 60 to 80% throughout. Further, the inhibition at 50 µg/mL with Aureobasidium sp., in the assay with Trichoderma sp. and in the assay with Cladosporium sp. was 60 to 80% throughout. The pest or weed control at 50 µg/mL with Botrytis cinerea (50 mg/L sprayed at 1,000 L/ha) was no less than 80%. In the assay with Botrytis cinerea, the pest or weed control at 100 µg/mL was no less than 80%. In addition, in the assay with Septoria tritici, the EC80 was no more than 0.2 µg/mL. Besides, in the assay on Fusarium graminearum, the pest or weed control at 500 µg/mL was no less than 90%.
As to `C[C@]1(CBr)CC[C@@H](Cc2ccc(Cl)cc2)[C@]1(O)Cn1cncn1` (racemic) [Compound I-25, (1RS,2SR,5SR)-2-bromomethyl-5-(4-chlorobenzyl)-2-methyl-1-(1H-1,2,4-triazol-1-ylmethyl)cyclopentanol], the inhibition at 50 µg/mL with Aspergillus sp., in the assay with Mucor sp., with Coriolus versicolor, in the assay on Curvularia sp., in the assay on Tyromyces palustris and with Penicillium sp. was 60 to 80% throughout. Also, the inhibition at 50 µg/mL in the assay with Aureobasidium sp., in the assay with Trichoderma sp. and in the assay with Cladosporium sp. was 60 to 80% each time. The pest or weed control at 100 µg/mL in the assay on Botrytis cinerea and in the assay with Fusarium graminearum was no less than 80% each time. In addition, the EC80 with Septoria tritici was no more than 0.2 µg/mL. For the same compound, the pest or weed control at 500 µg/mL in the assay with Fusarium graminearum was no less than 90%.
Turning to `CC[C@]1(CCl)CC[C@@H](Cc2ccc(Cl)cc2)[C@]1(O)Cn1cncn1` (racemic) [Compound I-36, (1RS,2SR,5SR)-5-(4-chlorobenzyl)-2-chloromethyl-2-ethyl-1-(1H-1,2,4-triazol-1-ylmethyl)cyclopentanol], the inhibition at 50 µg/mL in the assay with Aspergillus sp., in the assay on Mucor sp., in the assay with Coriolus versicolor, in the assay on Curvularia sp., in the assay on Tyromyces palustris and in the assay with Penicillium sp. was 60 to 80% throughout. For the same compound, the inhibition at 50 µg/mL with Aureobasidium sp., with Trichoderma sp. and in the assay on Cladosporium sp. was 60 to 80% throughout. The EC80 with Septoria tritici was no more than 0.2 µg/mL. Further, the pest or weed control at 100 µg/mL with Fusarium graminearum was no less than 80%. Also, the pest or weed control at 500 µg/mL with Fusarium graminearum was no less than 90%.
As to `O[C@]1(Cn2cncn2)[C@H](Cc2ccc(Cl)cc2)CC[C@@H]1C(F)(F)F` (racemic) [Compound I-65, (1RS,2SR,5SR)-5-(4-chlorobenzyl)-2-trifluoromethyl-1-(1H-1,2,4-triazol-1-ylmethyl)cyclopentanol], the inhibition at 50 µg/mL in the assay with Aspergillus sp., in the assay on Mucor sp., with Coriolus versicolor, in the assay with Curvularia sp., in the assay with Tyromyces palustris and in the assay with Penicillium sp. was 60 to 80% throughout. For the same compound, the inhibition at 50 µg/mL in the assay on Aureobasidium sp., in the assay on Trichoderma sp. and in the assay with Cladosporium sp. was 60 to 80% throughout. For the same compound, the pest or weed control at 100 µg/mL in the assay on Botrytis cinerea was no less than 80%. In addition, the pest or weed control at 500 µg/mL in the assay on Fusarium graminearum was no less than 90%.
`CC(Cl)=C[C@]1(C)CC[C@@H](Cc2ccc(Cl)cc2)[C@]1(O)Cn1cncn1` (racemic) [Compound I-115, (1RS,2SR,5SR)-5-(4-chlorobenzyl)-2-(2-chloropropenyl)-2-methyl-1-(1H-1,2,4-triazol-1-ylmethyl)cyclopentanol]: the inhibition at 50 µg/mL in the assay on Aspergillus sp., in the assay with Mucor sp., in the assay on Coriolus versicolor, with Curvularia sp., in the assay with Tyromyces palustris and with Penicillium sp. was 60 to 80% in each case. Moreover, the inhibition at 50 µg/mL with Aureobasidium sp., in the assay with Trichoderma sp. and in the assay with Cladosporium sp. was 60 to 80% each time. Moreover, the pest or weed control at 100 µg/mL with Fusarium graminearum is no less than 80%. Also, the pest or weed control at 500 µg/mL in the assay with Fusarium graminearum is no less than 90%.
On to `C[C@]1(CCl)CC[C@@H](Cc2ccc(Cl)cc2)[C@]1(O)Cn1ccnc1` (racemic) [Compound I-244, (1RS,2SR,5SR)-5-(4-chlorobenzyl)-2-chloromethyl-2-methyl-1-imidazol-1-ylmethylcyclopentanol], for which the inhibition at 50 µg/mL in the assay with Aspergillus sp., in the assay with Mucor sp., with Coriolus versicolor, with Curvularia sp., with Tyromyces palustris and in the assay with Penicillium sp. was 60 to 80% in each case. In addition, the inhibition at 50 µg/mL in the assay with Aureobasidium sp., in the assay with Trichoderma sp. and in the assay on Cladosporium sp. was 60 to 80% each time. Moreover, the EC80 with Septoria tritici was no more than 0.2 µg/mL. In addition, the pest or weed control at 500 µg/mL in the assay with Fusarium graminearum is no less than 90%.
Consider `C[C@]1(CCl)CC[C@H](Cc2ccc(Cl)cc2)[C@]1(O)Cn1cncn1` (racemic) [Compound I-301, (1RS,2SR,5RS)-5-(4-chlorobenzyl)-2-chloromethyl-2-methyl-1-[1,2,4]triazol-1-ylmethylcyclopentanol], for which the inhibition at 50 µg/mL in the assay on Aspergillus sp., in the assay with Mucor sp., with Coriolus versicolor, in the assay on Curvularia sp., in the assay on Tyromyces palustris and in the assay with Penicillium sp. was 60 to 80% throughout. Besides, the inhibition at 50 µg/mL in the assay with Aureobasidium sp., in the assay on Trichoderma sp. and with Cladosporium sp. was 60 to 80% in each case. For the same compound, the EC80 in the assay with Septoria tritici is no more than 0.2 µg/mL. The pest or weed control at 500 µg/mL with Fusarium graminearum is no less than 90%.
Take `O[C@]1(Cn2cncn2)[C@@H](Cc2ccc(Cl)cc2)CC[C@@H]1C(F)(F)F` (racemic) [Compound I-365, (1RS,2SR,5RS)-5-(4-chlorobenzyl)-2-trifluoromethyl-1-(1H-1,2,4-triazol-1-ylmethyl)cyclopentanol]: the inhibition at 50 µg/mL in the assay with Aspergillus sp., in the assay on Mucor sp., with Coriolus versicolor, in the assay on Curvularia sp., with Tyromyces palustris and in the assay on Penicillium sp. was 60 to 80% in each case. The inhibition at 50 µg/mL with Aureobasidium sp., in the assay on Trichoderma sp. and with Cladosporium sp. was 60 to 80% throughout. Also, the pest or weed control at 500 µg/mL in the assay with Fusarium graminearum was no less than 90%.
Regarding `C[C@@]1(CCl)CC[C@H](Cc2ccc(Cl)cc2)[C@]1(O)Cn1cncn1` (racemic) [Compound I-401, (1RS,2RS,5RS)-5-(4-chlorobenzyl)-2-chloromethyl-2-methyl-1-[1,2,4]triazol-1-ylmethylcyclopentanol], the inhibition at 50 µg/mL with Aspergillus sp., in the assay with Mucor sp., with Coriolus versicolor, with Curvularia sp., with Tyromyces palustris and with Penicillium sp. was 60 to 80% in each case. The inhibition at 50 µg/mL in the assay on Aureobasidium sp., in the assay on Trichoderma sp. and with Cladosporium sp. was 60 to 80% throughout. Moreover, the pest or weed control at 500 µg/mL with Fusarium graminearum was no less than 90%.

Values taken from patent US9145351B2, “Azole derivatives, methods for producing the same, intermediate thereof, agro-horticultural agents” (KUREHA CORPORATION, priority 2009, dated 2015).
